From patent US4109081A, “1-(3,5-Disubstituted-2,4,6-triiodophenyl)-3-(polyhydroxy-alkyl)urea compounds” (Mallinckrodt, Inc., priority 1975, dated 1978)
Converted amounts (≈) assume the structure as drawn. Read-outs that look alike come from different tables or passages of the source.

What was measured:
[1] = aqueous solubility (solubility of the product in water); assay type: physicochemical
dogs = assay: intravenous pyelographic studies in dogs; assay type: in vivo, dog; details: for visualization of kidneys, ureters and urinary bladder: 140 mg. I/kg., dogs
Protocol: The compounds of Examples I, II and III were employed in intravenous pyelographic studies carried out in dogs. At a dosage of 140 mg. […] At a dosage of 167 mg.

Swiss Albino mice [2] = assay: Intracerebral Toxicity in Mice; assay type: in vivo, mouse (Swiss Albino, Charles River); details: intracerebral injection, seven day observation; Example IV at 4.3% iodine, Example V at 13.3% iodine
Protocol: (§1) carried out in aqueous solutions of the compounds of Examples IV and V.
Swiss Albino mice (charles River) were used. Fixed volumes of aqueous solutions of the iodinated compounds were injected intracerebrally via a 27 gauge needle (1/4 inch in length) according to the method of Haley et al. (Br. J. of Pharmac. 12:12-15, 1957). In the case of the compound of Example IV, a solution of the compound having an iodine concentration of 4.3% was employed and in the case of the compound of Example V, a solution of the compound having an iodine concentration of 13.3% was employed. The animals were observed immediately following injections and daily throughout a seven day observation period. The LD50 values were calculated by the method of Litchfield and Wilcoxon (J. of Pharmac. and Exptl. Therap. 96:99-113, 1949).

Swiss Albino mice [3] = assay: Acute Intravenous Toxicity Studies in Mice; assay type: in vivo, mouse (Swiss Albino, Charles River); details: lateral tail vein, iodine concentration 28.2%, pH 7.0-7.2, approximately 1 ml./min., seven day observation
Protocol: as §1
Swiss Albino mice (Charles River) were dosed in the lateral tail vein with aqueous solutions of the above-noted iodinated compounds of Examples I, II and III having an iodine concentration of 28.2% with a pH of 7.0-7.2. The solutions were injected at the rate of approximately 1 ml./min. […] The LD50 values were calculated by the method of Litchfield and Wilcoxon (J. of Pharmac. and Exptl. Therap. 96: 99-113, 1949).

Sprague-Dawley rats = assay: Intracisternal Toxicity in Rats; assay type: in vivo, rat (Sprague-Dawley, Carworth); details: two day observation, Example IV at 7.43% iodine, Example V at 13.3% iodine
Text: as §1
Sprague-Dawley (Carworth) rats were used. In the case of the compound of Example IV, a solution of the compound having an iodine concentration of 7.43% was employed and in the case of the compound of Example V, a solution of the compound having an iodine concentration of 13.3% was employed. The method used was a variation of the procedure outlined by Melartin et al. (Invest. Rad. 5: 13-21, 1970). After dosing, the animals were housed individually and observed for immediate reactions and periodically for a two day observation period. The LD50 values were calculated according to the method of Litchfield and Wilcoxon (J. of Pharmac. and Exptl. Therap. 96:99-115, 1949).

[4] = water, read-out: solubility of the product in water

With `COc1c(I)cc(I)c(NC(=O)N(C)C[C@H](O)[C@@H](O)[C@H](O)[C@H](O)CO)c1I` [3-[3-methoxy-2,4,6-triiodophenyl]-1-methyl-1-(D-gluco-2,3,4,5,6-pentahydroxyhexyl)urea, reference compound] the solubility ([1]; insufficiently water-soluble for toxicity testing in aqueous solution, read-out: water solubility) was < 10 mg/mL.
With `CNC(=O)c1c(I)c(NC(=O)N(C)C[C@H](O)[C@@H](O)[C@H](O)[C@H](O)CO)c(I)c(C(=O)N(C)C)c1I` [Example I, 3-[3-(N,N-Dimethylcarbamyl)-2,4,6-triiodo-5-(N-methylcarbamyl)phenyl]-1-methyl-1-(D-gluco-2,3,4,5,6-pentahydroxylhexyl)urea] the solubility [1, 4] was ≥ 1000 mg/mL, the “visualization of kidneys, ureters and urinary bladder” value (dogs; five minutes after injection) was “good visualization of kidneys, ureters and urinary bladder” and the “LD50 Intracerebral (Mice)” value (Swiss Albino mice [2]) was 1,500 mg. I/kg. body wt. For the same compound, the “LD50 I.V. (Mice)” value (Swiss Albino mice [3]) was 1,878 mg. I/kg. body wt and the “LD50 Intracisternal (Rats)” value (Sprague-Dawley rats) was 21 mg. I/kg. body wt.
In the case of `CNC(=O)c1c(I)c(NC(=O)N[C@@H](C=O)[C@@H](O)[C@H](O)[C@H](O)CO)c(I)c(N(C)C(C)=O)c1I` [Example III, 5-{3-[2-(D-Gluco-2-deoxy-3,4,5,6-tetrahydroxy-1-oxohexyl)]ureido}-2,4,6-triiodo-N-methyl-3-(N-methylacetamido)-benzamide], the solubility [1, 4] was ≥ 1000 mg/mL, the “visualization of the kidneys and ureters” value (dogs; 167 mg. I/kg., five minutes after injection, dog) was “better visualization of the kidneys with some visualization of the ureters” and the “visualization of the kidney” value (dogs; 167 mg. I/kg., one minute after injection, dog) was “a shadow of the kidney”. The “LD50 Intracerebral (Mice)” value (Swiss Albino mice [2]) was 1,460 mg. I/kg. body wt, the “LD50 I.V. (Mice)” value (Swiss Albino mice [3]) was 6,800 mg. I/kg. body wt and the “LD50 Intracisternal (Rats)” value (Sprague-Dawley rats) was < 40 mg. I/kg. body wt.
In the case of `CNC(=O)c1c(I)c(NC(=O)N[C@@H](C=O)[C@@H](O)[C@H](O)[C@H](O)CO)c(I)c(C(=O)N(C)C)c1I` [Example II], the solubility [1, 4] was ≥ 1000 mg/mL, the “visualization of kidneys, ureters and urinary bladder” value (dogs; five minutes after injection) was “good visualization of kidneys, ureters and urinary bladder” and the “LD50 Intracerebral (Mice)” value (Swiss Albino mice [2]) was 1,720 mg. I/kg. body wt. For the same compound, the “LD50 I.V. (Mice)” value (Swiss Albino mice [3]) was 4,817 mg. I/kg. body wt and the “LD50 Intracisternal (Rats)” value (Sprague-Dawley rats) was 17 mg. I/kg. body wt.
With `CNC(=O)c1c(I)c(NC(C)=O)c(I)c(NC(=O)N[C@@H](C=O)[C@@H](O)[C@H](O)[C@H](O)CO)c1I` [Example IV] the solubility [1, 4] was 180 to 200 mg/mL (≈ 228 to 253 mM), the “LD50 Intracerebral (Mice)” value (Swiss Albino mice [2]) was > 350 mg. I/kg. body wt and the “LD50 Intracisternal (Rats)” value (Sprague-Dawley rats) was 62 mg. I/kg. body wt.
With `CNC(=O)c1c(I)c(NC(=O)N[C@@H](C=O)[C@@H](O)[C@H](O)[C@H](O)CO)c(I)c(C(=O)NC)c1I` [Example V, 5-{3-[2-(D-gluco-2-deoxy-3,4,5,6-tetrahydroxy-1-oxohexyl)]ureido}-2,4,6-tri-iodo-N,N'-dimethylisophthalamide] the solubility ([1]; water, depending upon the method employed, read-out: aqueous solubility) was 27 to 80 mg/mL (≈ 34.2 to 101 mM), the “LD50 Intracerebral (Mice)” value (Swiss Albino mice [2]) was > 899 mg. I/kg. body wt and the “LD50 Intracisternal (Rats)” value (Sprague-Dawley rats) was > 266 mg. I/kg. body wt.
Compound `CNC(=O)c1c(I)c(NC(=O)N[C@@H](CO)[C@@H](O)[C@H](O)[C@H](O)CO)c(I)c(N(CCO)C(C)=O)c1I` [Example VI, 3-{3-[1-(D-gluco-2-deoxy-1,3,4,5,6-pentahydroxyhexyl)]ureido}-5-[N-(2-hydroxyethyl)acetamido]-2,4,6-triiodo-N-methylbenzamide] has a solubility ([1]; water, read-out: water solubility) of ~780 mg/mL (≈ 933 mM).
